Data reported in US20020137929A1, “1 - (3-heterocyclylphenyl) isothiourea, -isourea, -guanidine and -amidine herbicidal agents” (Intellectual Property Department, BASF Aktiengesellschaft, priority 1998, published 2002).

Columns and labels:
ECHCG (Barnyardgrass) = experiment: Postemergence herbicidal evaluation; assay type: in vivo, Echinochloa crus-galli; conditions: for ECHCG herbicidal rating: postemergence
Method in brief: (§1)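 Two-week-old seedlings sprayed with compound in 50/50 acetone/water plus 0.5% TWEEN 20, at about 0.0156 to 0.500 kg/ha, nozzle at 40 psi. Kept in greenhouse; rated visually 4-5 weeks after treatment on a 0-9 scale versus control, repeat tests averaged.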

[1] = test system: CHEAL (Lambsquarters, Common); experiment: Postemergence herbicidal evaluation; assay type: in vivo, Chenopodium album; conditions: for CHEAL herbicidal rating: postemergence
Method in brief: as §1

CYPSE (Flatsedge) [2] = experiment: Preemergence weed control under flooded paddy conditions; assay type: in vivo, Cyperus serotinus; conditions: rated 3-4 weeks after treatment
Method in brief: (§2)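 Ratings on a 0-9 visual scale cover stand, vigor, malformation, size, chlorosis and overall appearance relative to a control, taken three to four weeks post-treatment. Application was into flood water over freshly sown silt loam at roughly 0.0313 to 0.500 kg/ha.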

SETVI (Foxtail, Green) = experiment: Postemergence herbicidal evaluation; assay type: in vivo, Setaria viridis; conditions: for SETVI herbicidal rating: postemergence
Method in brief: as §1

CYPIR (Rice Flatsedge) = experiment: Preemergence weed control under flooded paddy conditions; assay type: in vivo, Cyperus iria; conditions: rated 3-4 weeks after treatment
Method in brief: as §2

[3] = test system: SAGPY (Arrowhead (Pygmaea)); experiment: as above; assay type: in vivo, Sagittaria pygmaea; conditions: rated 3-4 weeks after treatment
Method in brief: as §2

GALAP (Galium) [4] = experiment: Postemergence herbicidal evaluation; assay type: in vivo, Galium aparine; conditions: for GALAP herbicidal rating: postemergence
Method in brief: as §1

CASOB (Sicklepod) [5] = experiment: Postemergence herbicidal evaluation; assay type: in vivo, Cassia obtusifolia; conditions: for CASOB herbicidal rating: postemergence
Method in brief: as §1

CYPSE (Flatsedge) [6] = experiment: Postemergence weed control under flooded paddy conditions; assay type: in vivo, Cyperus serotinus; conditions: postemergence weeds
Method in brief: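 Injury ratings (0–9 scale covering stand, vigor, malformation, size, chlorosis and overall appearance versus control) were made three to four weeks after treatment. Test material, about 0.0313 to 0.500 kg/ha a.i. in 50/50 v/v aqueous/acetone, was added to flood water 1.5 to 3 cm deep over 3 to 5 cm weeds and 1.5 to 2.5 leaf rice.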

AMBEL (Ragweed, Common) = experiment: Postemergence herbicidal evaluation; assay type: in vivo, Ambrosia artemisifolia; conditions: for AMBEL herbicidal rating: postemergence
Method in brief: as §1

ORYSAT (Rice, Tebonnet) = experiment: Postemergence herbicidal evaluation; assay type: in vivo, Oryza sativa, (L.) Tebonnet; conditions: for ORYSAT herbicidal rating: postemergence
Method in brief: as §1

ZEAMX (Corn, Field) = experiment: Preemergence herbicidal evaluation; assay type: in vivo, Zea mays; conditions: rated 4-5 weeks after treatment
Method in brief: (§3)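 Herbicidal effect scored visually, 0-9, at 4 to 5 weeks against a control; compound applied preemergence by aqueous acetone spray to seeded soil at about 0.0156 to 0.500 kg/ha.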

GALAP (Galium) [7] = experiment: Preemergence herbicidal evaluation; assay type: in vivo, Galium aparine; conditions: rated 4-5 weeks after treatment
Method in brief: as §3

[8] = test system: GLXMAW (Soybean, Williams); experiment: Postemergence herbicidal evaluation; assay type: in vivo, Glycine max, (L.) Merr. cv Williams; conditions: for GLXMAW herbicidal rating: postemergence
Method in brief: as §1

CASOB (Sicklepod) [9] = experiment: Preemergence herbicidal evaluation; assay type: in vivo, Cassia obtusifolia; conditions: rated 4-5 weeks after treatment
Method in brief: as §3

CCOC(=O)C(c1ccc(Cl)cc1)N1C(=O)CSC1=Nc1cc(-n2c(=O)cc(C(F)(F)F)n(C)c2=O)c(F)cc1Cl (racemic) [Compound 79, Ethyl α-(p-chlorophenyl)-2-{{2-chloro-5-[3,6-dihydro-3-methyl-2,6-dioxo-4-(trifluoromethyl)-1(2H)-pyrimidinyl]-4-fluorophenyl}imino}-4-oxo-3-thiazolidineacetate, DL-]
ECHCG herbicidal rating (ECHCG (Barnyardgrass); rate 0.0158 kg/ha): 1.0
ECHCG herbicidal rating (ECHCG (Barnyardgrass); rate 0.0315 kg/ha): 1.0
ECHCG herbicidal rating (ECHCG (Barnyardgrass); rate 0.0630 kg/ha): 1.0
CHEAL herbicidal rating ([1]; rate 0.0158 kg/ha): 1.0
CHEAL herbicidal rating ([1]; rate 0.0315 kg/ha): 7.0
CHEAL herbicidal rating ([1]; rate 0.0630 kg/ha): 7.0
CYPSE herbicidal effect rating (CYPSE (Flatsedge) [2]; 0.0313 kg/ha): 0.0
CYPSE herbicidal effect rating (CYPSE (Flatsedge) [2]; 0.0625 kg/ha): 0.0
CYPSE herbicidal effect rating (CYPSE (Flatsedge) [2]; 0.1250 kg/ha): 0.0
CYPSE herbicidal effect rating (CYPSE (Flatsedge) [2]; 0.2500 kg/ha): 9.0
SETVI herbicidal rating (SETVI (Foxtail, Green); rate 0.0158 kg/ha): 4.0
SETVI herbicidal rating (SETVI (Foxtail, Green); rate 0.0315 kg/ha): 1.0
SETVI herbicidal rating (SETVI (Foxtail, Green); rate 0.0630 kg/ha): 1.0
CYPIR herbicidal effect rating (CYPIR (Rice Flatsedge); 0.0313 kg/ha): 0.0
CYPIR herbicidal effect rating (CYPIR (Rice Flatsedge); 0.0625 kg/ha): 0.0
CYPIR herbicidal effect rating (CYPIR (Rice Flatsedge); 0.1250 kg/ha): 2.0
CYPIR herbicidal effect rating (CYPIR (Rice Flatsedge); 0.2500 kg/ha): 6.0
SAGPY herbicidal effect rating ([3]; 0.0313 kg/ha): 0.0
SAGPY herbicidal effect rating ([3]; 0.0625 kg/ha): 0.0
SAGPY herbicidal effect rating ([3]; 0.1250 kg/ha): 4.0
SAGPY herbicidal effect rating ([3]; 0.2500 kg/ha): 4.0
GALAP herbicidal rating (GALAP (Galium) [4]; rate 0.0158 kg/ha): 1.0
GALAP herbicidal rating (GALAP (Galium) [4]; rate 0.0315 kg/ha): 2.0
GALAP herbicidal rating (GALAP (Galium) [4]; rate 0.0630 kg/ha): 1.0
CASOB herbicidal rating (CASOB (Sicklepod) [5]; rate 0.0158 kg/ha): 1.0
CASOB herbicidal rating (CASOB (Sicklepod) [5]; rate 0.0315 kg/ha): 1.0
CASOB herbicidal rating (CASOB (Sicklepod) [5]; rate 0.0630 kg/ha): 1.0
Herbicidal rating CYPSE (CYPSE (Flatsedge) [6]; Rate 0.0313 kg/ha, rated 3 to 4 weeks after treatment): 0.0
Herbicidal rating CYPSE (CYPSE (Flatsedge) [6]; Rate 0.0625 kg/ha, rated 3 to 4 weeks after treatment): 0.0
Herbicidal rating CYPSE (CYPSE (Flatsedge) [6]; Rate 0.1250 kg/ha, rated 3 to 4 weeks after treatment): 0.0
Herbicidal rating CYPSE (CYPSE (Flatsedge) [6]; Rate 0.2500 kg/ha, rated 3 to 4 weeks after treatment): 9.0
AMBEL herbicidal rating (AMBEL (Ragweed, Common); rate 0.0158 kg/ha): 6.0
AMBEL herbicidal rating (AMBEL (Ragweed, Common); rate 0.0315 kg/ha): 7.0
AMBEL herbicidal rating (AMBEL (Ragweed, Common); rate 0.0630 kg/ha): 9.0
ORYSAT herbicidal rating (ORYSAT (Rice, Tebonnet); rate 0.0158 kg/ha): 2.5
ORYSAT herbicidal rating (ORYSAT (Rice, Tebonnet); rate 0.0315 kg/ha): 2.5
ORYSAT herbicidal rating (ORYSAT (Rice, Tebonnet); rate 0.0630 kg/ha): 4.0
Preemergence herbicidal rating ZEAMX (ZEAMX (Corn, Field); rate 0.0313 kg/ha): 1.0
Preemergence herbicidal rating ZEAMX (ZEAMX (Corn, Field); rate 0.0625 kg/ha): 1.0
Preemergence herbicidal rating ZEAMX (ZEAMX (Corn, Field); rate 0.1250 kg/ha): 1.0
Preemergence herbicidal rating ZEAMX (ZEAMX (Corn, Field); rate 0.2500 kg/ha): 2.0
Preemergence herbicidal rating GALAP (GALAP (Galium) [7]; rate 0.0313 kg/ha): 0.0
Preemergence herbicidal rating GALAP (GALAP (Galium) [7]; rate 0.0625 kg/ha): 0.0
Preemergence herbicidal rating GALAP (GALAP (Galium) [7]; rate 0.1250 kg/ha): 0.0
Preemergence herbicidal rating GALAP (GALAP (Galium) [7]; rate 0.2500 kg/ha): 0.0
GLXMAW herbicidal rating ([8]; rate 0.0158 kg/ha): 4.5
GLXMAW herbicidal rating ([8]; rate 0.0315 kg/ha): 5.0
GLXMAW herbicidal rating ([8]; rate 0.0630 kg/ha): 5.0
Preemergence herbicidal rating CASOB (CASOB (Sicklepod) [9]; rate 0.0313 kg/ha): 1.0
Preemergence herbicidal rating CASOB (CASOB (Sicklepod) [9]; rate 0.0625 kg/ha): 0.0
Preemergence herbicidal rating CASOB (CASOB (Sicklepod) [9]; rate 0.1250 kg/ha): 0.0
Preemergence herbicidal rating CASOB (CASOB (Sicklepod) [9]; rate 0.2500 kg/ha): 1.0

COC(=O)CCN1C(=O)CSC1=Nc1cc(-n2c(=O)cc(C(F)(F)F)n(C)c2=O)c(F)cc1Cl [Compound 28, Methyl 2-{{2-chloro-5-[3,6-dihydro-3-methyl-2,6-dioxo-4-(trifluoromethyl)-1(2H)-pyrimidinyl]-4-fluorophenyl}imino}-4-oxo-3-thiazolidinepropionate]
Postemergence herbicidal rating ECHCG (ECHCG (Barnyardgrass); Rate 0.0158 kg/ha): 0.0
Postemergence herbicidal rating ECHCG (ECHCG (Barnyardgrass); Rate 0.0315 kg/ha): 5.0
Postemergence herbicidal rating ECHCG (ECHCG (Barnyardgrass); Rate 0.0630 kg/ha): 9.0
Postemergence herbicidal rating CHEAL ([1]; Rate 0.0158 kg/ha): 2.0
Postemergence herbicidal rating CHEAL ([1]; Rate 0.0315 kg/ha): 4.0
Postemergence herbicidal rating CHEAL ([1]; Rate 0.0630 kg/ha): 4.0
Herbicidal rating CYPSE (CYPSE (Flatsedge) [2]; 0.0313 kg/ha): 0.0
Herbicidal rating CYPSE (CYPSE (Flatsedge) [2]; 0.0625 kg/ha): 0.0
Herbicidal rating CYPSE (CYPSE (Flatsedge) [2]; 0.1250 kg/ha): 0.0
Herbicidal rating CYPSE (CYPSE (Flatsedge) [2]; 0.2500 kg/ha): 0.0
Postemergence herbicidal rating SETVI (SETVI (Foxtail, Green); Rate 0.0158 kg/ha): 0.0
Postemergence herbicidal rating SETVI (SETVI (Foxtail, Green); Rate 0.0315 kg/ha): 9.0
Postemergence herbicidal rating SETVI (SETVI (Foxtail, Green); Rate 0.0630 kg/ha): 9.0
Herbicidal rating CYPIR (CYPIR (Rice Flatsedge); 0.0313 kg/ha): 9.0
Herbicidal rating CYPIR (CYPIR (Rice Flatsedge); 0.0625 kg/ha): 9.0
Herbicidal rating CYPIR (CYPIR (Rice Flatsedge); 0.1250 kg/ha): 9.0
Herbicidal rating CYPIR (CYPIR (Rice Flatsedge); 0.2500 kg/ha): 9.0
Herbicidal rating SAGPY ([3]; 0.0313 kg/ha): 0.0
Herbicidal rating SAGPY ([3]; 0.0625 kg/ha): 0.0
Herbicidal rating SAGPY ([3]; 0.1250 kg/ha): 0.0
Herbicidal rating SAGPY ([3]; 0.2500 kg/ha): 0.0
Postemergence herbicidal rating GALAP (GALAP (Galium) [4]; Rate 0.0158 kg/ha): 3.0
Postemergence herbicidal rating GALAP (GALAP (Galium) [4]; Rate 0.0315 kg/ha): 7.0
Postemergence herbicidal rating GALAP (GALAP (Galium) [4]; Rate 0.0630 kg/ha): 8.0
Postemergence herbicidal rating CASOB (CASOB (Sicklepod) [5]; Rate 0.0158 kg/ha): 1.0
Postemergence herbicidal rating CASOB (CASOB (Sicklepod) [5]; Rate 0.0315 kg/ha): 1.0
Postemergence herbicidal rating CASOB (CASOB (Sicklepod) [5]; Rate 0.0630 kg/ha): 4.0
Herbicidal rating CYPSE (CYPSE (Flatsedge) [6]; rate 0.0313 kg/ha, 3-4 weeks after treatment): 0.0
Herbicidal rating CYPSE (CYPSE (Flatsedge) [6]; rate 0.0625 kg/ha, 3-4 weeks after treatment): 0.0
Herbicidal rating CYPSE (CYPSE (Flatsedge) [6]; rate 0.1250 kg/ha, 3-4 weeks after treatment): 0.0
Herbicidal rating CYPSE (CYPSE (Flatsedge) [6]; rate 0.2500 kg/ha, 3-4 weeks after treatment): 0.0
Postemergence herbicidal rating AMBEL (AMBEL (Ragweed, Common); Rate 0.0158 kg/ha): 4.0
Postemergence herbicidal rating AMBEL (AMBEL (Ragweed, Common); Rate 0.0315 kg/ha): 4.0
Postemergence herbicidal rating AMBEL (AMBEL (Ragweed, Common); Rate 0.0630 kg/ha): 9.0
Postemergence herbicidal rating ORYSAT (ORYSAT (Rice, Tebonnet); Rate 0.0158 kg/ha): 2.5
Postemergence herbicidal rating ORYSAT (ORYSAT (Rice, Tebonnet); Rate 0.0315 kg/ha): 3.5
Postemergence herbicidal rating ORYSAT (ORYSAT (Rice, Tebonnet); Rate 0.0630 kg/ha): 6.0
Preemergence herbicidal rating ZEAMX (ZEAMX (Corn, Field); rate 0.0625 kg/ha): 5.0
Preemergence herbicidal rating ZEAMX (ZEAMX (Corn, Field); rate 0.1250 kg/ha): 9.0
Preemergence herbicidal rating ZEAMX (ZEAMX (Corn, Field); rate 0.2500 kg/ha): 8.0
Preemergence herbicidal rating GALAP (GALAP (Galium) [7]; rate 0.0625 kg/ha): 0.0
Preemergence herbicidal rating GALAP (GALAP (Galium) [7]; rate 0.1250 kg/ha): 0.0
Preemergence herbicidal rating GALAP (GALAP (Galium) [7]; rate 0.2500 kg/ha): 9.0
Postemergence herbicidal rating GLXMAW ([8]; Rate 0.0158 kg/ha): 6.5
Postemergence herbicidal rating GLXMAW ([8]; Rate 0.0315 kg/ha): 8.0
Postemergence herbicidal rating GLXMAW ([8]; Rate 0.0630 kg/ha): 8.5
Preemergence herbicidal rating CASOB (CASOB (Sicklepod) [9]; rate 0.0625 kg/ha): 0.0
Preemergence herbicidal rating CASOB (CASOB (Sicklepod) [9]; rate 0.1250 kg/ha): 0.0
Preemergence herbicidal rating CASOB (CASOB (Sicklepod) [9]; rate 0.2500 kg/ha): 0.0
